In PubChem BioAssay AID1353 (Sanford-Burnham Center for Chemical Genomics, 2008):
Activity calls are given as the source filed them.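 How the source made its calls: active means ATP loss reduced by over 30% versus thapsigargin-only wells, at any thapsigargin dose tested; inactive means the rest.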

Test system: C17.2 differentiated neurons, thapsigargin death, ATPlite, 24 h
Experiment: rescue of C17.2 neurons from thapsigargin, SAR follow-up, cell-based, differentiated mouse neural stem C17.2, ATP luminescence (AID 1353)
Settings: at 25 µM, stronger effect = higher value
[1] = measured here: survival at thapsigargin 5 uM
[2] = measured here: survival at thapsigargin 15 uM

| Structure (SMILES) | survival | survival [1] [%] | survival [2] [%] |
| --- | --- | --- | --- |
| COc1ccc(C2CC(=O)C3=C(C2)Nc2ccccc2NC3c2cccc(C(F)(F)F)c2)cc1OC (stereo not drawn) | 5% (inactive) | 59 | 0 |
| COc1ccc(C2CC(=O)C3=C(C2)Nc2ccccc2NC3c2cc(C)ccc2C)cc1 (stereo not drawn) | 2% (inactive) | 69 | 0 |
| CCCOc1ccc(C2Nc3ccccc3NC3=C2C(=O)CC(c2ccc(OC)c(OC)c2)C3)cc1 (stereo not drawn) | 20% (inactive) | 62 | 1 |
| CC1(C)CC(=O)C2=C(C1)Nc1ccccc1NC2c1ccc(-c2ccccc2)cc1 (stereo not drawn) | 1% (inactive) | 45 | 0 |
| COc1ccc(C2CC(=O)C3=C(C2)Nc2ccccc2NC3c2cccc(Oc3ccccc3)c2)cc1OC (stereo not drawn) | 50% | 68 | 1 |
| COc1ccc(C2CC(=O)C3=C(C2)Nc2ccccc2NC3c2cccc(Br)c2)cc1OC (stereo not drawn) | 7% (inactive) | 67 | 0 |
| CSc1ccc(C2Nc3ccccc3NC3=C2C(=O)CC(c2ccccc2)C3)cc1 (stereo not drawn) | 2% (inactive) | 86 | 0 |
| CCOc1cccc(C2Nc3ccccc3NC3=C2C(=O)CC(c2ccc(OC)cc2)C3)c1 (stereo not drawn) | 1% (inactive) | 83 | 0 |
| O=C1CC(c2ccccc2)CC2=C1C(c1c(F)cccc1Cl)Nc1ccccc1N2 (stereo not drawn) | 10% (inactive) | 87 | 1 |
| COc1ccc(C2CC(=O)C3=C(C2)Nc2ccccc2NC3c2ccccc2C(F)(F)F)cc1OC (stereo not drawn) | 12% (inactive) | 55 | 1 |
| CCOc1cc(C2Nc3ccccc3NC3=C2C(=O)CC(c2ccc(OC)cc2)C3)cc(Cl)c1O (stereo not drawn) | 1% (inactive) | 79 | 0 |
